# Test results reported in patent US20080058709A1, “METHOD AND APPARATUS THAT ASSOCIATE THE PARENTERAL INJECTION OF MEDICAL GRADE CARBON DIOXIDE (CO2) CONCOMITANTLY WITH THE APPLICATION OF INFRARED RADIATION FROM THERMAL AND/OR LIGHT SOURCES USING CONTROL BY MEANS OF CUTANEOUS AND/OR BODY THERMOMETRY” (priority 2006, published 2008).
# Entries after “also recorded” stand apart in the source; their conditions may differ.
# Columns and labels:
# [1] = tested on: patients with vascular and painful morbidities; experiment: subcutaneous and intradermal CO2 injections in patients with vascular and painful morbidities (clinical observation); type: in vivo, human
# Source text: It was perceived that the beneficial therapeutic effects in the areas of diffusion of CO2 after its injection subcutaneously and intradermally explored the initial “aesthetic” objectives.
# patients = experiment: infrared radiation applied concomitantly with parenteral CO2 injection: pain during gas infusion; type: in vivo, human
# Protocol: The intensity of radiation, however, could cause skin lesions; thus, during the infusions, he started to use as a safety parameter the assessment of skin temperature on the sites were irradiation was applied.
# (§1) a.1) Following antisepsis and placement of limiting devices (G) (tourniquets), initiate the application of 02 to 03 minutes of infrared radiation in the area to be treated with thermal or light infrared radiation emitters (4), prior to initiating the injection of the CO2 gas (2);
# c.1) Monitoring with the infrared emitting source (4) the treated areas (AT) that are receiving the injection of CO2 gas (2), throughout the procedure; in the areas with skin lesions of ischemic etiology, more caution should be exercised when using this radiation.
# [2] = tested on: Vascular Disease—Miscellaneous; experiment: application of the invention in vascular disease, miscellaneous (healing, grafts, flaps); type: in vivo, human; details: CO2 infusion combined with infrared radiation controlled by thermometry
# Source text: The present developed method includes two main stages:
# Stage I) Application of the medical grade carbon dioxide—CO2—in vascular diseases and painful syndromes consists of the following stages:
# d) Injections of the gas (2) via the parenteral route (3), standardized by the type of vasculopathy, painful syndrome, or induction of focal reactive oxygen therapy, adjusted by the type of treatment, and automatically controlled by the interfaces of the apparatus (A2);
# Stage II) Application of infrared radiation consists of the following stages:
# as §1
# (§2) Along these lines, the applicant has conjectured several clinical applications for using the method and controlled apparatuses of carbon dioxide infusion (A1) combined with the emission of infrared radiation (4) controlled by cutaneous/body thermometry (5) in an interface apparatus (A2) in vascular diseases, painful syndromes, lo treatment of osteoarticular tissues, and induction of focal reactive oxygen therapy. Following tests and observations, the applicant obtained the following results with the application of the present invention: […]
# acupuncture points = experiment: application of the invention in acupuncture (carboxyacupuncture); type: in vivo, human; details: CO2 infusion combined with infrared radiation controlled by thermometry
# Source text: Technical variants in the mode of application of the product have also been developed by the proponent, such as: the use of limiting devices or tourniquets (G) at several points of the lower limbs in order to limit the expansion of the gas; distribution and homogenization of the CO2 in areas of interest by means of manual massages with oils, creams, or ointments; as well as the development of specific injection techniques into alternative parenteral routes (intramuscular, subfascial, intrasynovial, and other), as well as new methodologies of injection of the gas (carboxyacupuncture, sclerocarboxytherapy, and carboembolotherapy), all representing methods to optimize the effects and the use of the proposed apparatus (1).
# as §2
# [3] = tested on: bone tissues and related connective tissues; experiment: application of the invention in direct therapies on bone and related connective tissues; type: in vivo, human; details: CO2 infusion combined with infrared radiation controlled by thermometry
# Source text: as §2
# [4] = tested on: patients that had arterial circulatory disease with intermittent claudication; details: transcutaneous, bathing in waters rich in CO2; cited from earlier work
# [5] = tested on: patients allergic to iodine contrast media; details: intra-arterial injections, even at large volumes; cited from earlier work
structure (smiles),measurement,setting,value
"O=C=O [CO2, carbon dioxide]",vascular and painful symptoms following injections of the gas,"[1]; CO2 injected subcutaneously and intradermally, patients treated for aesthetics",showed improvement of vascular and painful symptoms
same,therapeutic effects after moving injection sites closer to the painful morbidities and the circulatory system,[1]; modified sites and forms of parenteral injection of CO2,clear intensification of the initially observed therapeutic effects
same,analgesia during the infusion of the gas,patients,produced an important analgesia
same,results in Vascular Disease—Miscellaneous,[2],Accelerates the cicatricial process in lesions difficult to heal; also recorded: Accelerates the cicatricial process in areas of circulatory deficit; also recorded: Augments donor areas of free skin grafts; also recorded: Circulatory improvement in advancement or myocutaneous flaps
same,results in Acupuncture (Carboxyacupuncture),acupuncture points,Greater local effect at systemic and cranial acupuncture points; also recorded: Greater action spectrum on less sensitive meridians; also recorded: Greater longevity of treatment
same,results in direct therapies on bone tissues and related connective tissues,[3],Facilitates intraoperatory dissection of tendinous sheaths; also recorded: Minimizes post tenolysis adhesions
same,walking distance,[4],improving the walking distance
same,adverse reactions,[5],no significant adverse reactions even at large volumes
